Laboratory results as given in patent US12690587B2, “Animal and insect repellent and method of its use” (Cranberry IP, LLC, priority 2023, dated 2026).

System: white tail deer
Experiment: 12-month field test of repellent at twenty-one monitored test sites (tracks and browsing damage)
Type: in vivo, Odocoileus virginianus
Conditions: within 60-day application periods; regular and consistent use
Procedure: The performance of repellent composition of the present invention was evaluated by the inventor of the present invention in a study that lasted for approximately one year using twenty-one monitored test sites to field test the effectiveness of the composition that included butyl lactate. These sites each had three monitored areas: formulation with butyl lactate (1), same formulation without butyl lactate (2), and control (3), each approximately 100-200 square feet in size. Due to the proximity of the sites, the range of climates, food sources and types of species were consistent, making it easy to assess the repellent's effectiveness, which was evaluated by means of visual inspections and rating for animal tracks around and in the areas, and browsing damage to the plant material.

## CCCCOC(=O)C(C)O (stereo not shown) [Butyl lactate]
  duration of decreased white tail deer damage, presence and entry into treated areas: more than 30 days
